The values that follow come from patent US20230210984A1, “ADOPTIVE IMMUNOTHERAPY” (The Council of the Queensland Institute of Medical Research, priority 2019, published 2023).

The subject of test [1] is SNU719 derived xenograft tumour. Kind of test: SNU719 xenograft, selumatinib and TIG-001 in vivo. Further details: species or system NRG mice. The procedure: FIG. 19: Assessment of therapeutic efficacy of dual combination of selumatinib and allogeneic EBV-specific cytotoxic T cells in vivo. (A) The impact of the dual combination of selumatinib and allogeneic T cells (TIG-001) on the outgrowth of EBV-positive SNU719 xenografts in NRG mice was assessed. Tumour-bearing mice were treated with two doses of HLA-matched T cells (2×10^7 T cells per dose per mouse indicated by black arrow) and selumatinib (12.5 mg/Kg) orally for continuous 14 days, either individually or in combination. The growth of each xenograft is represented as the mean tumour area±SD from n=9 mice/group. (B) Gross morphology of the tumours isolated from the mice of indicated treatment groups. (C) Representation of tumour weight described in (B) from the mice of indicated treatment groups. The data are represented as the mean±SD from n=3 mice per group. P-values were calculated using one-way ANOVA. (D) Representation of viable percentage of tumour infiltrates observed across individually treated allogeneic T cells (TIG-001) and in combination with selumatinib as determined by CD45, CD3 and CD8 expression using flow cytometry. P-values were calculated using Student T test. (E) Kaplan-Meier overall survival analysis of the mice bearing EBV-associated tumours as described in (A) following individual and combination treatment of selumatinib and allogeneic T cells. The animals' survival (n=6 mice/group) was monitored over the indicated period of time and statistical significance was analysed by log-rank test: ns=not significant, *p<0.05, **p<0.01, ***p<0.001 and ****p<0.0001.
In next set of experiments, we wanted to investigate the effect of the above described small molecules in combination of HLA matched allogeneic EBV-specific T cells in vivo. We used the combination of selumatinib and HLA-matched T cell product (TIG-001) to treat SNU719 derived xenograft tumour model in female NRG mice. Once the xenograft reached the size of ˜25 mm^2, we treated the mice with two infusion of TIG-001 (2×10^7 cells per infusion) individually and in combination with daily dosage selumatinib (12.5 mg/kg), administered orally for 14 days. […] Next, we phenotyped the infiltration of the human origin lymphocytes in these tumours using flow cytometry.

In a further test the test system is SNU719 cells. Kind of test: Xcellegence growth curve (Example 2). Type of test: cell-based. To be noted: dual combination with EBV-specific T cells vs individual treatment.

Description for SNU719 cells: P-values were calculated using one-way ANOVA: *p<0.05, **p<0.01, ***p<0.001 and ****p<0.0001.
We treated SNU719 cells (gastric cancer cells) with MEK1/2 inhibitor (AZD6244 (or selumetanib) and trematinib) at concentration of 0.5 μM and 1.0 μM respectively, as individual treatment or in combination with EBV-specific T cells (25:1) as effector to target ratio.

On to `Cn1cnc2c(F)c(Nc3ccc(Br)cc3Cl)c(C(=O)NOCCO)cc21` [selumetanib], for which the “number of viable CD45+CD3+CD8+ cells in tumours” value in test [1] (combination with TIG-001 vs individually treated T cell group) was “significantly more”. Also, the survival rate result in test [1] (dual combination with TIG-001 vs individual treatment group) is listed as “better survival rate”. Besides, in test [1] (dual combination with TIG-001 vs individual treatment, when control reached 150 mm^2), the “size of the tumours” value is given as “significantly smaller”. Besides, in test [1] (selumatinib 12.5 mg/kg orally 14 days plus two infusions of TIG-001 (2×10^7 cells) vs individual treatment), the tumour progression entry is given as “significant reduction”. Moreover, the “rate of cell death (Xcellegence)” value in the test with SNU719 cells was “faster cell death”.
